US5567692A, “9-[(substituted glycyl) amido)]-6-demethyl-6-deoxytetracyclines” (priority 1995, dated 1996)
Counter-ions that a name gives are not always drawn.

Assays:
[1] = test system: Salmonella spp.; experiment: MIC range, recent clinical and veterinary isolates; assay type: cell-based; settings: 18 h, [11] isolates
[2] = test system: Listeria monocytogenes; experiment: MIC range, recent clinical and veterinary isolates; assay type: cell-based; settings: 18 h, [8] isolates
[3] = test system: S. aureus NEMC 8769; experiment: MIC, agar dilution; assay type: cell-based
[4] = test system: Serratia marcescens; experiment: MIC range, recent clinical and veterinary isolates; assay type: cell-based; settings: 18 h, [10] isolates, read-out: MIC Range
[5] = test system: Clostridium perfringens; experiment: microbe, parasite or virus in culture; assay type: cell-based; settings: 18 h, read-out: MIC Range
[6] = test system: Providencia spp.; experiment: MIC range, recent clinical and veterinary isolates; assay type: cell-based; settings: 18 h, read-out: MIC Range
[7] = test system: S. marcescens FPOR 8733; experiment: MIC, agar dilution; assay type: cell-based; settings: dihydrochloride
[8] = test system: S. aureus UBMS 88-4; experiment: MIC, agar dilution; assay type: cell-based; settings: Staphylococcus aureus, UBMS884, 18 h
[9] = test system: Pseudomonas aeruginosa; experiment: MIC range, recent clinical and veterinary isolates; assay type: cell-based; settings: 18 h, [10] isolates, read-out: MIC Range
[10] = test system: S. aureus UBMS 88-7 Tet K; experiment: microbe, parasite or virus in culture; assay type: cell-based; settings: dihydrochloride
[11] = test system: S. aureus IVES 2943; experiment: MIC, agar dilution; assay type: cell-based; settings: S. aureus IVES 2943; dihydrochloride
[12] = test system: tetracycline sensitive and resistant Gram-positive and Gram-negative bacteria; experiment: In vitro antibacterial evaluation, summary in words; assay type: cell-based; settings: summary of Tables I, II and V, dihydrochloride
[13] = test system: Proteus vulgaris; experiment: MIC range, recent clinical and veterinary isolates; assay type: cell-based; settings: 18 h, [18] isolates, read-out: MIC Range
[14] = test system: Escherichia coli UBMS 90-4 (Tet M); experiment: Acute lethal infection in mice, E. coli UBMS 90-4; settings: in Mus musculus, iv, 168 h
[15] = test system: Staphylococcus Coagulase-negative, (methicillin-resistant); experiment: MIC range, recent clinical and veterinary isolates; assay type: cell-based; settings: 18 h, [16] isolates
[16] = test system: E. faecalis ATCC 29212; experiment: MIC, agar dilution; assay type: cell-based; settings: E. faecalis ATCC 29212
[17] = test system: Enterococcus faecium; experiment: MIC range, recent clinical and veterinary isolates; assay type: cell-based; settings: 18 h, read-out: MIC Range
[18] = test system: Escherichia coli; experiment: MIC range, recent clinical and veterinary isolates; assay type: cell-based; settings: 18 h, read-out: MIC Range
[19] = test system: Streptococcus pyogenes; experiment: MIC range, recent clinical and veterinary isolates; assay type: cell-based; settings: 18 h, read-out: MIC Range
[20] = test system: Citrobacter freundii; experiment: MIC range, recent clinical and veterinary isolates; assay type: cell-based; settings: 18 h, [10] isolates, read-out: MIC Range
[21] = test system: Staphylococcus aureus, (methicillin-resistant); experiment: MIC range, recent clinical and veterinary isolates; assay type: cell-based; settings: 18 h, [15] isolates
[22] = test system: Bacteroides fragilis group; experiment: MIC range, recent clinical and veterinary isolates; assay type: cell-based; settings: Bacteroides fragilis, 18 h, read-out: MIC Range
[23] = test system: Staphylococcus Coagulase-negative, (methicillin-susceptible); experiment: MIC range, recent clinical and veterinary isolates; assay type: cell-based; settings: 18 h, [14] isolates
[24] = test system: Enterococcus spp, (Vancomycin-resistant); experiment: MIC range, recent clinical and veterinary isolates; assay type: cell-based; settings: 18 h, [8] isolates
[25] = test system: E. coli J3272 Tet C; experiment: microbe, parasite or virus in culture; assay type: cell-based; settings: dihydrochloride
[26] = test system: X. maltophilia NEMC 87210; experiment: MIC, agar dilution; assay type: cell-based; settings: X. maltophilia NEMC 87210; dihydrochloride
[27] = test system: Streptococcus pneumoniae; experiment: MIC range, recent clinical and veterinary isolates; assay type: cell-based; settings: 18 h, [10] isolates, read-out: MIC Range
[28] = test system: Moraxella catarrhalis; experiment: MIC range, recent clinical and veterinary isolates; assay type: cell-based; settings: 18 h, [18] isolates, read-out: MIC Range

`CN(C)CC(=O)Nc1ccc2c(c1O)C(=O)C1=C(O)[C@]3(O)C(=O)C(C(N)=O)=C(O)[C@@H](N(C)C)C3CC1C2` (stereo partly drawn) [CC, [4S-(4alpha,12aalpha)]-4-(Dimethylamino)-9-[[(dimethylamino)acetyl]amino]-1,4,4a,5,5a,6,11,12a-octahydro-3,10,12,12a-tetrahydroxy-1,11-dioxo-2-naphthacenecarboxamide dihydrochloride] was tested, and the MIC [1] was 0.25 to 0.5 µg/mL, the MIC [2] was 0.06 to 0.12 µg/mL and the MIC [3] was less than 0.015 µg/mL. The MIC [4] was 2 to 8 µg/mL, the MIC [5] was 0.03 to 2 µg/mL and the MIC [6] was 1 to 8 µg/mL. For the same compound, the MIC [7] was 2 µg/mL, the MIC [8] was 0.03 µg/mL and the MIC [9] was 2 to 16 µg/mL. The MIC [10] was 0.5 µg/mL, the MIC [11] was 0.5 µg/mL and the “in vitro antibacterial activity (in words)” value [12] was “excellent in vitro activity”. The “in vitro antibacterial activity (in words)” value ([12]; listed as 9-[(N,N-dimethylglycyl)amido)]-6-demethyl-6-deoxytetracycline) was “potent in vitro antibacterial activity”, the MIC [13] was 0.06 to 1 µg/mL and the ED50 [14] was 1.6 mg/kg. For the same compound, the MIC [15] was 0.06 to 16 µg/mL, the MIC [16] was 0.03 µg/mL and the MIC [17] was 0.06 to 0.5 µg/mL. It also gave an MIC [18] of 0.25 to 4 µg/mL, an MIC [19] of 0.06 to 0.12 µg/mL and an MIC [20] of 0.5 to 8 µg/mL. For the same compound, the MIC [21] was 0.12 to 4 µg/mL, the MIC [22] was 0.12 to 2 µg/mL and the MIC [23] was 0.06 to 4 µg/mL. The MIC [24] was 0.03 to 0.12 µg/mL, the MIC [25] was 0.25 µg/mL and the MIC [26] was 1 µg/mL. For the same compound, the MIC [27] was 0.03 to 0.5 µg/mL and the MIC [28] was 0.06 to 0.12 µg/mL.
